According to US20190374506A1, “COMPOSITIONS AND METHODS FOR TREATING CANCER” (BETH ISREAL DEACONESS MEDICAL CENTER, priority 2016, published 2019):

Assays:
[1] = system: Wwp1^+/+ and Wwp1^−/− MEFs; test: Growth curves of Wwp1+/+ and Wwp1-/- MEFs treated with I3C; format: cell-based, mouse; settings: 100 μM I3C
Method: FIG. 10C provides growth curves of Wwp1^+/+ and Wwp1^−/− MEFs treated with 100 μM I3C. Representative pictures of the cells at Day 3 are shown below. Whether targeting WWP1/NEDD4-1, thereby enhancing PTEN dimerization and function, could offer a unique opportunity to treat MYC-driven cancers was investigated. […] As there is no small pharmacological inhibitor currently available to suppress/inhibit WWP1 activity, Indole-3-Carbinol (I3C), a potential WWP1 inhibitor, which suppresses the WWP1 activity through binding to its HECT domain, was used. First, to assess the on-target effects of I3C towards WWP1, Wwp1^−/− MEFs were used. […] Additionally, two independent PTEN stably knocked-down cells were generated. […] At 8 hours post-transfection, cells were trypsinized, resuspended, and seeded in three separate 12-well plates at a final density of 20,000/well. Starting the following day (d0), one plate per day was washed once with PBS, fixed in 10% formalin solution for 10 minutes at room temperature, and kept in PBS at 4° C. On the last day, all of the wells were stained with crystal violet. After lysis with 10% acetic acid, optical density was read at 595 nm.

[2] = system: PTEN subcellular localization in DU145 cells; test: Confocal immunofluorescence of PTEN subcellular localization in DU145 cells; format: cell-based, human; settings: 20 μM I3C for 4 Days
Method: FIG. 10D provides a panel of micrographs showing the effects of I3C on PTEN subcellular localization in DU145 cells. DU145 cells treated with 20 μM I3C for 4 Days. Confocal images of DU145 cells treated with/without I3C were stained with DAPI and the indicated antibodies. Bar, 20 μm. Whether targeting WWP1/NEDD4-1, thereby enhancing PTEN dimerization and function, could offer a unique opportunity to treat MYC-driven cancers was investigated. […] As there is no small pharmacological inhibitor currently available to suppress/inhibit WWP1 activity, Indole-3-Carbinol (I3C), a potential WWP1 inhibitor, which suppresses the WWP1 activity through binding to its HECT domain, was used. First, to assess the on-target effects of I3C towards WWP1, Wwp1^-/- MEFs were used. […] Additionally, two independent PTEN stably knocked-down cells were generated. […] PC3 and DU145 cells stably expressing the indicated constructs were plated on coverslip. The following day, cells were washed with ice-cold PBS, fixed in 4% paraformaldehyde, permeabilized with 0.02% Triton X-100, and then blocked with PBS supplemented with 20% goat serum. Cells were incubated with anti-PTEN antibody (6H2.1, 1:100) from Cascade Bioscience, diluted in PBS containing 10% goat serum overnight and then with Alexa488-conjugated secondary antibody together with 1 μg/ml of DAPI for 1 hour. Images were acquired with a […] […]

Hi-Myc prostate spheres = test: Prostate sphere forming ability of WT or Hi-Myc prostatic epithelial cells; format: cell-based, mouse; settings: Hi-Myc spheres at P1 passage, 10 μM I3C for 3 Day (low dose)
Hi-Myc mouse prostates = test: Preclinical study of I3C in Hi-Myc mice (prostate cancer); format: in vivo
Method: FIGS. 12A and 12B show hematoxylin and eosin (H&E) staining of mouse prostate and gross anatomy of representative Hi-Myc urogenital tract. Quantification of percentage of normal epithelium in Hi-Myc mice treated with vehicle or I3C at 6 months as shown in (A) (right). The mice at 5 months of age were treated I.P. with I3C (20 mg/kg), three times a week for 1 month starting on day zero. (n=4 per genotype) scale bar, […].
FIG. 12C provides a Western blot analysis of dorsal lateral prostate (DLP) lysates from Hi-Myc mice as in (A).
The boxed areas are enlarged three fold to show the subcellular localization of PTEN on the right. Arrow indicates the PTEN plasma membrane localization. Bar, 50 μm.
To examine the functional relevance of the WWP1/NEDD4-1/PTEN crosstalk in vivo, preclinical studies with I3C in Hi-Myc mice were performed. The expression of Hi-Myc in mouse prostate results in complete penetrance of prostatic intraepithelial neoplasia (PIN) and progresses into invasive adenocarcinoma within 5 to 12 months of age. To this end, cohorts of Hi-Myc mice at 5 months of age were treated with either the vehicle or I3C for one month.
The Beth Israel Deaconess Medical Center IACUC Committee on Animal Research approved all animal experiments. The transgenic mice used in these studies (Hi-Myc-mice), in which the prostate specific expression of human c-Myc is driven by the rat probasin promoter with two androgen response elements, were obtained from the Mouse Repository of National Cancer Institute. 9 mice per genotype were randomly chosen and used to examine the tumour at the indicated age. Wwp1−/−mice and its paired Wwp1+/+ mice (on a C57/BL6 background) were obtained from Dr. L. Matesic (University of South Carolina, Columbia, SC, USA) (Shu et al., 2013). The pathologist determined the histological grade blindly.
The mice were treated I.P. with I3C dissolved in 5% DMSO (20 mg/kg), three times a week for […] starting on day zero. I.P. administration allows I3C to achieve maximal systemic exposure.

[3] = literature statement; cited from earlier work
[4] = Hi-Myc mice, I3C 20 mg/kg I.P., western blot

Which “sensitivity of Wwp1−/− cells to I3C treatment compared to Wwp1+/+ cells” value [1] does the source give for `OCc1c[nH]c2ccccc12` [I3C, indole-3-carbinol] here?
The value was “more resistant”.

And the “PTEN plasma membrane localization” value [2]?
Its value is “induced its plasma membrane accumulation”.

What about the prostate sphere-forming ability (Hi-Myc prostate spheres) of the same compound?
Its prostate sphere-forming ability is “drastically suppressed”.

And the “tumor size, DLP and AP” value (Hi-Myc mouse prostates; Hi-Myc mice 5 months of age, I3C 20 mg/kg I.P. three times a week for 1 month, dorsal lateral and anterior prostate)?
The value was “significantly reduced tumor size”.

What about the “tumor size, VP” value (Hi-Myc mouse prostates; Hi-Myc mice, I3C 20 mg/kg I.P. three times a week for 1 month, ventral prostate) of the same compound?
Its value is “less prominently”.

And the “PTEN plasma membrane localization in prostate epithelial cells (IHC, DLP tissue)” value (Hi-Myc mouse prostates; Hi-Myc mice, I3C 20 mg/kg I.P., compared to vehicle)?
The value was “induced intense PTEN plasma membrane accumulation”.

And the “histology of APs” value (Hi-Myc mouse prostates; Hi-Myc mice, I3C 20 mg/kg I.P., anterior prostate, H&E)?
The value was “completely disease-free”.

And the “histology of DLPs: penetrance of invasive carcinoma” value (Hi-Myc mouse prostates; Hi-Myc mice, I3C 20 mg/kg I.P., dorsal lateral prostate, H&E)?
The value was “significantly lower penetrance”.

What about the “AKT activation in prostate lysates, AP and DLP” value (Hi-Myc mouse prostates; [4]) of the same compound?
Its value is “robustly inhibited AKT activation”.

What about the “PTEN protein level in prostate lysates” value (Hi-Myc mouse prostates; [4]) of the same compound?
The value was “without affecting PTEN protein level”.

And the toxicity [3]?
The toxicity was “negligible toxicity”.
